Assay results taken from BigSolDB 2.1.

COc1cccc(C=O)c1O
solubility (mole fraction)
Conditions	273.15 K	278.15 K	283.15 K	288.15 K	293.15 K	298.15 K	303.15 K
in ethanol	0.0401	0.0526	0.0774	0.138	0.226	0.38	0.615
in n-propanol	0.0312	0.0388	0.0552	0.0807	0.134	0.299	0.554
in water	–	0.000268	0.000332	0.0004	0.000496	0.000578	0.000786
